What was measured:
[1] = test system: newly diagnosed glioblastoma; test: AvaGlio Phase III trial: bevacizumab plus temozolomide and radiotherapy versus placebo plus temozolomide and radiotherapy; assay type: in vivo, human; details: for OS hazard ratio (HR), multivariate Cox proportional hazard model: adjusted for prognostic covariates; for OS benefit, multivariate analysis (result in words): known prognostic covariates considered
Excerpt: The AvaGlio trial evaluated the efficacy and safety of bevacizumab in combination temozolomide and radiotherapy for newly diagnosed glioblastoma. This study was designed as a prospective, randomized, double blind, placebo controlled Phase III evaluation of bevacizumab plus chemotherapy versus chemotherapy alone. To be eligible, patients must have had newly diagnosed glioblastoma with a tissue diagnosis that has been established following either a surgical resection or biopsy. By adding bevacizumab to chemotherapy and radiotherapy, the AvaGlio trial aimed to improve overall survival (OS) and progression-free survival (PFS) for this group of patients who had limited therapeutic options and faced a particularly poor prognosis. The primary objective was to compare OS and PFS of patients randomized to temozolomide (TMZ) and radiotherapy only or to temozolomide and radiotherapy plus bevacizumab.
This trial consisted of three phases (Concurrent, Maintenance, and Monotherapy) and two (2) treatment arms: TMZ and radiotherapy (RT) (Arm 1), and TMZ and RT plus bevacizumab (Arm 2). Patients were randomly assigned (1:1) to either arm.
Arm 1 (chemotherapy and radiotherapy alone): Eligible patients received 2 Gy RT 5 days a week for 6 weeks and 75 mg/m^2 TMZ orally daily for 6 weeks from the first day to the last day of RT in combination with 10 mg/kg placebo i.v. every 2 weeks. After a 4-week treatment break, eligible patients received 6 cycles of 150-200 mg/m^2 TMZ on days 1-5 of an every-4-week schedule in combination with 10 mg/kg placebo i.v. every 2 weeks. TMZ was administered orally starting with a 150 mg/m^2 dose that could be escalated. Placebo monotherapy (15 mg/kg every 3 weeks) was then continued until disease progression. Upon disease progression, patients were treated at the investigator's discretion.
Arm 2 (chemotherapy and radiotherapy plus bevacizumab): Eligible patients received 2 Gy RT 5 days a week for 6 weeks and 75 mg/m^2 TMZ orally daily for 6 weeks from the first day to the last day of RT in combination with 10 mg/kg bevacizumab i.v. every 2 weeks. After a 4-week treatment break, eligible patients received 6 cycles of 150-200 mg/m^2 TMZ on days 1-5 of an every-4-week schedule in combination with 10 mg/kg bevaciumab i.v. every 2 weeks. TMZ was administered orally starting with a 150 mg/m^2 dose that could be escalated. Bevaciazumab monotherapy (15 mg/kg every 3 weeks) was then continued until disease progression. Upon disease progression, patients were treated at the investigator's discretion.
The initial bevacizumab infusion was over 90 minutes, with subsequent infusions over 60 minutes and then 30 minutes, as tolerated. Bevacizumab was administered on the last day of RT and TMZ treatment, i.e., the day before the start of the TMZ treatment break.
Analyses of PFS were based on tumor assessments MacDonald Response Criteria (modified WHO criteria) using MRI of the brain and a neurological evalution as described in Macdonald et al. (J. Clin. Oncol. 8: 1277-80, 1990). Tumor assessments were performed at baseline, at the end of the 4-week treatment break, then every 8 weeks.
Next, we classified the 349 samples from the AvaGlio trial for which biomarkers could be evaluated into the gene expression subtypes defined by Phillips (Cancer Cell. 9(3): 157-173, 2006).
Samples were analyzed with the same Nanostring probe set used to derive the subtype-specific centroids and expression scores for the same genes were obtained using the same technology and probe sequences. Of the 349 samples, 10 samples from patients carrying mutation(s) in the isocitrate dehydrogenase 1 (IDH1) gene, known to be associated with good prognoses, were excluded from this analysis. Of the remaining 339 IDH1 wild-type samples, raw Nanostring counts were log 2 transformed and the mean expression and standard deviation across all samples was adjusted to the same reference values applied to the training set of Example 2 above. […]

[2] = test system: newly diagnosed glioblastoma; test: as above; assay type: in vivo, human; details: known prognostic covariates considered

Substance: bevacizumab: recombinant humanized anti-VEGF monoclonal antibody generated according to Presta et al.; VL SEQ ID NO: 1, VH SEQ ID NO: 2
- OS hazard ratio (HR), multivariate Cox proportional hazard model ([1]; PN subtype (Phillips), IDH1 wild-type, 95% CI 0.24-0.72, p=0.002): 0.42
- extension of median OS in the treatment arm relative to the placebo arm ([1]; PN subtype (Phillips), n=99): about 4.9 months
- PFS hazard ratio (HR), treatment arm relative to placebo arm ([1]; PN subtype (Phillips), n=99, 95% CI 0.37-0.9, p=0.015): 0.58
- OS hazard ratio (HR), treatment arm relative to placebo arm ([1]; PN subtype (Phillips), n=99, 95% CI 0.4-0.99, p=0.043): 0.63
- median OS in the treatment arm ([1]; PN subtype (Phillips), placebo arm 12.2 months): 17.1 months
- OS benefit, multivariate analysis (result in words) ([1]; Phillips-classified PN subtype): statistically significant benefit in extending OS
- OS benefit, multivariate analysis (result in words) ([1]; Phillips-classified non-PN subtype): do not show significant OS benefit
- extension of median PFS in the treatment arm relative to the placebo arm ([1]; Phillips-classified proneural (PN) subtype, IDH1 wild-type, n=99): about 4.3 months
- increase in median progression-free survival (PFS) compared to the placebo arm ([1]; all patients, treatment arm (RT/TMZ/bevacizumab) vs placebo arm): about 4.4 months
- median overall survival (OS), difference between arms ([1]; all patients, treatment arm vs placebo arm): not significantly different between arms
- OS hazard ratio (HR), multivariate Cox proportional hazard model ([1]; non-PN subtype (Phillips), 95% CI 0.76-1.39, p=0.863): 1.03
- PFS and OS improvement (result in words) ([1]; patients having glioblastoma of the PN type): significant PFS and OS improvement
- OS benefit, multivariate analysis (result in words) ([2]; TCGA-classified PN subtype): significant OS benefit
- OS benefit, multivariate analysis (result in words) ([2]; TCGA-classified non-PN subtype): do not show significant OS benefit

— patent publication US10617755B2, “Combination therapy for the treatment of glioblastoma” (Genentech, Inc., priority 2013, dated 2020)
